Experimental data: US4831027A, “Imidazo-benzoxazinones, the preparation thereof and pharmaceutical compositions containing these compounds” (Dr. Karl Thomae GmbH, priority 1986, dated 1989)

System: anaesthetized cats
Test: Determination of the effect on blood pressure and positive inotropic activity in anaesthetized cats
Assay type: in vivo
Conditions: 0.3 mg/kg i.v., average of 2 cats; for Diastolic blood pressure change: anaesthetized cats (sodium pentobarbital), pressure in aorta abdominalis; for Duration of effect (half life) / Increase of dp/dt (contractility parameter dp/dtmax): anaesthetized cats; for Increase of dp/dt (contractility parameter dp/dtmax): pressure in left ventricle, catheter-tip manometer
Description: 1. Determination of the effect on blood pressure and positive inotropic activity in anaesthetized cats: The tests were carried out on cats which had been anaesthetized with sodium pentobarbital (40 mg/kg i.p. and 8 mg/kg/hour i.v.). The animals breathed spontaneously. The arterial blood pressure was measured in the aorta abdominalis using a Statham pressure transducer (P 23 Dc). To determine the positive inotropic activity the pressure in the left ventricle was measured using a catheter-tip manometer (Millar PC-350 A). From this, the contractility parameter dp/dtmax was obtained using an analogue differentiator. The test substance was injected into a vena femoralis. Polydiol 200 was used as solvent. The substance was tested on 2 cats, dosage 0.3 mg/kg i.v.

Row | Structure (SMILES) | Diastolic blood pressure change [mmHg] | Duration of effect (half life) [min] | Increase of dp/dt (contractility parameter dp/dtmax)
1 | CCN1C(=O)OC(C)(C)c2cc3[nH]c(-c4ccncc4)nc3cc21 [B, 5-ethyl-8,8-dimethyl-2-(4-pyridyl)-8-hydro-(5H)imidazo[5,4-g][3,1]benzoxazin-6-one] | -21 | 16 | +52%
2 | CCCc1nc2cc3c(cc2[nH]1)C(C)(C)OC(=O)N3 [C, 8,8-dimethyl-2-n-propyl-8-hydro-(5H)-imidazo[5,4-g][3,1]benzoxazin-6-one] | -11 | 11 | +31%
3 | CC1(C)OC(=O)Nc2cc3nc(-c4cccs4)[nH]c3cc21 [F, 8,8-dimethyl-2-(2-thienyl)-8-hydro-(5H)-imidazo[5,4-g][3,1]benzoxazin-6-one] | -24 | 10 | +28%
4 | CC1(C)OC(=O)Nc2cc3nc(-c4ccco4)[nH]c3cc21 [E, 8,8-dimethyl-2-(2-furyl)-8-hydro-(5H)-imidazo[5,4-g][3,1]benzoxazin-6-one] | -16 | 7 | +31%
5 | CC1(C)OC(=O)Nc2cc3nc(-c4ccncc4)[nH]c3cc21 [A, 8,8-dimethyl-2-(4-pyridyl)-8-hydro-(5H)-imidazo[5,4-g][3,1]benzoxazin-6-one] | 0 | 18 | +43%
6 | CCN1C(=O)OC(C)(C)c2cc3[nH]c(-c4ccco4)nc3cc21 [D, 5-ethyl-8,8-dimethyl-2-(2-furyl)-8-hydro-(5H)imidazo[5,4-g][3,1]benzoxazin-6-one] | -37 | 4 | +41%
